The test addresses T1, Human PD-L1/PD-1 (Homo sapiens, UniProt Q9NZQ7).
T1 construct: TVMV protease cleavage site (C); made in house; host or cells: HEK293T cells
The experiment in a line: HTRF Human PD-L1/PD-1 binding assay (PD-1-Ig/PD-L1-His). Conditions: PD-L1-His 10 nM, PD-1-Ig 20 nM; class symbol; read-out: HTRF Human PD-L1/PD-1 Binding Assay IC50 Range. In a few lines: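 HTRF read-out (665/620 nm ratio) after 30 min equilibration with Eu-cryptate anti-Ig mAb (1 nM) and APC anti-His mAb (20 nM). Peptides preincubated 15 min with PD-L1-His (10 nM), then PD-1-Ig (20 nM) added for 15 min.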

Each structure is given as a SMILES string. pIC50: −log10 of the molar value. *1 amine or outer side, *2 acyl side, *3 side chain or, on linkers, in order; H or OH if unused. Where a SMILES comes first, the peptide text is derived from it. Bridges are numbered along the chain shown (N, C = ends). [ ]: non-standard residue; d: D form. ξ: configuration not given here. Trp(1-CH2COOH) = N[C@@H](Cc1cn(CC(=O)O)c2ccccc12)C(=O)O; Phe(3,4,5-F3) = N[C@@H](Cc1cc(F)c(F)c(F)c1)C(=O)O; NMePhe(4-F) = CN[C@@H](Cc1ccc(F)cc1)C(=O)O; ξTrp(7-aza) = NC(Cc1c[nH]c2ncccc12)C(=O)O; Bta = N[C@@H](Cc1csc2ccccc12)C(=O)O; NMeY = CN[C@@H](Cc1ccc(O)cc1)C(=O)O; Hyp = O=C(O)[C@@H]1C[C@@H](O)CN1; NMeF = CN[C@@H](Cc1ccccc1)C(=O)O; X1 = O=C([C@H]1COCCN1[*:1])[*:2]; NMeNle = CCCC[C@H](NC)C(=O)O; dNle = CCCC[C@@H](N)C(=O)O; Pip = O=C(O)[C@@H]1CCCCN1; dPip = O=C(O)[C@H]1CCCCN1; hSer = N[C@@H](CCO)C(=O)O; NMeA = CN[C@@H](C)C(=O)O; Orn = NCCC[C@H](N)C(=O)O; dThz = O=C(O)[C@H]1CSCN1; Dab = NCC[C@H](N)C(=O)O; Dap = NC[C@H](N)C(=O)O; ξC = NC(CS)C(=O)O; Sar = CNCC(=O)O

T1 sequence (Q9NZQ7 with tags, fused parts or gaps): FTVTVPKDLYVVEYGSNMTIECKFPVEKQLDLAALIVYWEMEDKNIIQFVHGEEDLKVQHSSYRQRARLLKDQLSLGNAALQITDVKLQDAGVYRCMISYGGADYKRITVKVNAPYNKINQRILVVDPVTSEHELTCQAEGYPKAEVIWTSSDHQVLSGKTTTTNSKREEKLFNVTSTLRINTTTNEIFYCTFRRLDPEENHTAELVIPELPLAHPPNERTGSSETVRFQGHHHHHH

As to `CCCC[C@H]1C(=O)N2CCC[C@@H]2C(=O)N[C@@H](CO)C(=O)N[C@@H](C(C)C)C(=O)N(C)[C@@H](Cc2ccccc2)C(=O)N[C@@H](Cc2ccc(O)cc2)C(=O)N2CCC[C@@H]2C(=O)N[C@@H](Cc2c[nH]c3ccccc23)C(=O)N[C@@H](Cc2ccc(O)cc2)C(=O)N[C@@H](CC(C)C)C(=O)N[C@H](C(=O)NCC(N)=O)CSCC(=O)N[C@@H](Cc2cc(F)c(F)c(F)c2)C(=O)N(C)[C@@H](Cc2ccccc2)C(=O)N1C` [Example 10066] ({CH2CO}-[Phe(3,4,5-F3)][NMeF][NMeNle][dP]SV[NMeF]Y[dP]WYLCG-NH2; thioether N-13), the pIC50 is 8.00 to 9.00.
Turning to `CCCC[C@H]1C(=O)N2CSC[C@@H]2C(=O)N[C@@H](CC(=O)O)C(=O)N[C@@H](C(C)C)C(=O)N(C)[C@@H](Cc2ccccc2)C(=O)N[C@@H](Cc2ccc(O)cc2)C(=O)N2CCC[C@@H]2C(=O)N[C@@H](Cc2c[nH]c3ccccc23)C(=O)N[C@@H](Cc2ccc(O)cc2)C(=O)N[C@@H](CC(C)C)C(=O)N[C@H](C(=O)NCC(N)=O)CSCC(=O)N[C@@H](Cc2cc(F)c(F)c(F)c2)C(=O)N(C)[C@@H](Cc2ccccc2)C(=O)N1C` [Example 10093] ({CH2CO}-[Phe(3,4,5-F3)][NMeF][NMeNle][dThz]DV[NMeF]Y[dP]WYLCG-NH2; thioether N-13), the pIC50 is 8.00 to 9.00.
Under `CCCC[C@H]1C(=O)N2CCC[C@@H]2C(=O)N[C@@H](CC(N)=O)C(=O)N[C@@H](C(C)C)C(=O)N(C)[C@@H](Cc2ccccc2)C(=O)N[C@@H](CCC(=O)O)C(=O)N2CCCC[C@@H]2C(=O)N[C@@H](Cc2c[nH]c3ccccc23)C(=O)N[C@@H](Cc2ccc(O)cc2)C(=O)N[C@@H](CC(C)C)C(=O)N[C@H](C(=O)NCC(N)=O)CSCC(=O)N[C@@H](Cc2cc(F)c(F)c(F)c2)C(=O)N(C)[C@@H](Cc2ccc(F)cc2)C(=O)N1C` [Example 10579] ({CH2CO}-[Phe(3,4,5-F3)][NMePhe(4-F)][NMeNle][dP]NV[NMeF]E[dPip]WYLCG-NH2; thioether N-13) stands 8.00 to 9.00; under `CCCC[C@H]1C(=O)N(C)[C@@H](CCCC)C(=O)N[C@@H](CC(=O)O)C(=O)N[C@H](C(=O)NCC(N)=O)CSCC(=O)N[C@@H](Cc2ccc(O)cc2)C(=O)N(C)[C@@H](C)C(=O)N[C@@H](CC(N)=O)C(=O)N2CCC[C@H]2C(=O)N[C@@H](Cc2c[nH]cn2)C(=O)N[C@@H](CCC(=O)O)C(=O)N2C[C@H](O)C[C@H]2C(=O)N[C@@H](Cc2c[nH]c3ccccc23)C(=O)N[C@@H](CCN)C(=O)N[C@@H](Cc2cn(CC(=O)O)c3ccccc23)C(=O)N1C` [Example 5181] ({CH2CO}-Y[NMeA]NPHE[Hyp]W[Dab][Trp(1-CH2COOH)][NMeNle][NMeNle]DCG-NH2; thioether N-14), 7.00 to 8.00.
With `CCCC[C@H]1C(=O)N[C@@H](CC(N)=O)C(=O)N2CCC[C@H]2C(=O)N[C@@H](CO)C(=O)N[C@@H](CCO)C(=O)N2C[C@H](O)C[C@H]2C(=O)N[C@@H](Cc2c[nH]c3ccccc23)C(=O)N[C@@H](CCN)C(=O)N[C@@H](Cc2c[nH]c3ccccc23)C(=O)N(C)[C@@H](C)C(=O)N(C)CC(=O)N[C@@H](CCCNC(=N)N)C(=O)NC(C(=O)NCC(N)=O)CSCC(=O)N[C@@H](Cc2ccc(O)cc2)C(=O)N1C` (stereo partly drawn) [Example 10206] ({CH2CO}-Y[NMeNle]NPS[hSer][Hyp]W[Dab]W[NMeA][Sar]R[ξC]G-NH2; thioether N-14), the pIC50 is 5.00 to 6.00.
Consider `CCCC[C@H]1C(=O)N2CCC[C@@H]2C(=O)N[C@@H](CO)C(=O)N[C@@H](C(C)C)C(=O)N(C)[C@@H](Cc2ccccc2)C(=O)N[C@@H](Cc2ccc(O)cc2)C(=O)N2CCCC[C@@H]2C(=O)N[C@@H](Cc2c[nH]c3ccccc23)C(=O)N[C@@H](Cc2ccc(O)cc2)C(=O)N[C@@H](CC(C)C)C(=O)N[C@H](C(=O)NCC(N)=O)CSCC(=O)N[C@@H](Cc2ccccc2)C(=O)N(C)[C@@H](Cc2ccccc2)C(=O)N1C` [Example 10064] ({CH2CO}-F[NMeF][NMeNle][dP]SV[NMeF]Y[dPip]WYLCG-NH2; thioether N-13), for which the pIC50 is 7.00 to 8.00.
Consider `CCCC[C@H]1C(=O)N(C)[C@@H](CCCC)C(=O)N[C@@H](CCCNC(=N)N)C(=O)NC(C(=O)NCC(N)=O)CSCC(=O)N[C@@H](Cc2ccc(O)cc2)C(=O)N(C)[C@@H](C)C(=O)N[C@@H](CC(N)=O)C(=O)N2CCC[C@H]2C(=O)N[C@@H](CC(N)=O)C(=O)N[C@@H](CC(N)=O)C(=O)N2C[C@H](O)C[C@H]2C(=O)N[C@@H](Cc2c[nH]c3ccccc23)C(=O)N[C@@H](CO)C(=O)N[C@@H](Cc2c[nH]c3ccccc23)C(=O)N1C` (stereo partly drawn) [Example 10014] ({CH2CO}-Y[NMeA]NPNN[Hyp]WSW[NMeNle][NMeNle]R[ξC]G-NH2; thioether N-14), for which the pIC50 is 7.00 to 8.00.
On to `CCCC[C@H]1C(=O)N(C)CC(=O)N[C@@H](CC(=O)O)C(=O)N[C@@H](C(C)C)C(=O)N(C)[C@@H](Cc2ccccc2)C(=O)N[C@@H](Cc2ccc(O)cc2)C(=O)N(C)CC(=O)NC(Cc2c[nH]c3ncccc23)C(=O)N[C@@H](Cc2ccc(O)cc2)C(=O)N[C@@H](CC(C)C)C(=O)N[C@H](C(=O)NCC(N)=O)CSCC(=O)N[C@@H](Cc2ccccc2)C(=O)N(C)[C@@H](Cc2ccccc2)C(=O)N1C` (stereo partly drawn) [Example 3239] ({CH2CO}-F[NMeF][NMeNle][Sar]DV[NMeF]Y[Sar][ξTrp(7-aza)]YLCG-NH2; thioether N-13), for which the pIC50 is 7.00 to 8.00.
For `CCCC[C@H]1C(=O)N(C)[C@@H](CCCC)C(=O)N[C@@H](CN)C(=O)N[C@H](C(=O)NCC(N)=O)CSCC(=O)N[C@@H](Cc2ccc(O)cc2)C(=O)N2CCCC[C@H]2C(=O)N[C@@H](CC(N)=O)C(=O)N2CCC[C@H]2C(=O)N[C@@H](CN)C(=O)N[C@@H](CCC(=O)O)C(=O)N2C[C@H](O)C[C@H]2C(=O)N[C@@H](Cc2c[nH]c3ccccc23)C(=O)N[C@@H](CCN)C(=O)N[C@@H](Cc2cn(CC(=O)O)c3ccccc23)C(=O)N1C` [Example 1295] ({CH2CO}-Y[Pip]NP[Dap]E[Hyp]W[Dab][Trp(1-CH2COOH)][NMeNle][NMeNle][Dap]CG-NH2; thioether N-14), the pIC50 was 7.00 to 8.00.
For `CCCC[C@H]1C(=O)N(C)[C@@H](CCCC)C(=O)N[C@@H](CCC(=O)O)C(=O)N[C@H](C(=O)NCC(N)=O)CSCC(=O)N[C@@H](Cc2ccc(O)cc2)C(=O)N(C)[C@@H](C)C(=O)N[C@@H](CC(=O)O)C(=O)N2CCC[C@H]2C(=O)N[C@@H](CO)C(=O)N[C@@H](CC(C)C)C(=O)N2C[C@H](O)C[C@H]2C(=O)N[C@@H](Cc2c[nH]c3ccccc23)C(=O)N[C@@H](CCN)C(=O)N[C@@H](Cc2cn(CC(=O)O)c3ccccc23)C(=O)N1C` [Example 6135] ({CH2CO}-Y[NMeA]DPSL[Hyp]W[Dab][Trp(1-CH2COOH)][NMeNle][NMeNle]ECG-NH2; thioether N-14) the value was 8.00 to 9.00; for `CCCC[C@H]1C(=O)N2CCC[C@@H]2C(=O)N[C@@H](CC(=O)O)C(=O)N[C@@H](C(C)C)C(=O)N(C)[C@@H](Cc2ccccc2)C(=O)N[C@@H](CCC(=O)O)C(=O)N2CCOC[C@@H]2C(=O)N[C@@H](Cc2c[nH]c3ccccc23)C(=O)N[C@@H](Cc2ccc(O)cc2)C(=O)N[C@@H](CCC(N)=O)C(=O)N[C@H](C(=O)NCC(N)=O)CSCC(=O)N[C@@H](Cc2cc(F)c(F)c(F)c2)C(=O)N(C)[C@@H](Cc2ccc(O)cc2)C(=O)N1C` [Example 10619] ({CH2CO}-[Phe(3,4,5-F3)][NMeY][NMeNle][dP]DV[NMeF]E[X1]WYQCG-NH2; thioether N-13), 7.00 to 8.00; for `CCCC[C@H]1NC(=O)[C@H](Cc2c[nH]c3ccccc23)NC(=O)[C@H](CO)NC(=O)[C@H](Cc2c[nH]c3ccccc23)NC(=O)[C@@H]2C[C@@H](O)CN2C(=O)[C@H](CCC(N)=O)NC(=O)[C@H](Cc2cnc[nH]2)NC(=O)[C@@H]2CCCN2C(=O)[C@H](CC(N)=O)NC(=O)[C@H](C)N(C)C(=O)[C@H](Cc2ccc(O)cc2)NC(=O)CSCC(C(=O)NCC(N)=O)NC(=O)[C@H](CCCNC(=N)N)NC(=O)[C@H](CCCC)N(C)C1=O` (stereo partly drawn) [Example 10126] ({CH2CO}-Y[NMeA]NPHQ[Hyp]WSW[dNle][NMeNle]R[ξC]G-NH2; thioether N-14), 5.00 to 6.00.
For `CCCC[C@H]1C(=O)N(C)[C@@H](CCCC)C(=O)N[C@@H](CCCNC(=N)N)C(=O)NC(C(=O)NCC(N)=O)CSCC(=O)N[C@@H](Cc2ccc(O)cc2)C(=O)N(C)[C@@H](C)C(=O)N[C@@H](CC(N)=O)C(=O)N2CCC[C@H]2C(=O)N[C@@H](CCO)C(=O)N[C@@H](CC(C)C)C(=O)N2C[C@H](O)C[C@H]2C(=O)N[C@@H](Cc2c[nH]c3ccccc23)C(=O)N[C@@H](CO)C(=O)N[C@@H](Cc2csc3ccccc23)C(=O)N1C` (stereo partly drawn) [Example 9150] ({CH2CO}-Y[NMeA]NP[hSer]L[Hyp]WS[Bta][NMeNle][NMeNle]R[ξC]G-NH2; thioether N-14) the value was 8.00 to 9.00; for `CCCC[C@H]1C(=O)N2CCC[C@@H]2C(=O)N[C@@H](CC(=O)O)C(=O)N[C@@H](C(C)C)C(=O)N(C)[C@@H](Cc2ccccc2)C(=O)N[C@@H](CCC(=O)O)C(=O)N2CCOC[C@@H]2C(=O)N[C@@H](Cc2c[nH]c3ccccc23)C(=O)N[C@@H](Cc2ccc(O)cc2)C(=O)N[C@@H](CCCN)C(=O)N[C@H](C(=O)NCC(N)=O)CSCC(=O)N[C@@H](Cc2cc(F)c(F)c(F)c2)C(=O)N(C)[C@@H](Cc2ccc(O)cc2)C(=O)N1C` [Example 10618] ({CH2CO}-[Phe(3,4,5-F3)][NMeY][NMeNle][dP]DV[NMeF]E[X1]WY[Orn]CG-NH2; thioether N-13), 7.00 to 8.00.
On to `CCCC[C@H]1C(=O)N2CCC[C@@H]2C(=O)N[C@@H](CC(=O)O)C(=O)N[C@@H](C(C)C)C(=O)N(C)[C@@H](Cc2ccccc2)C(=O)N[C@@H](Cc2ccc(O)cc2)C(=O)N2CCC[C@@H]2C(=O)N[C@@H](Cc2c[nH]c3ccccc23)C(=O)N[C@@H](Cc2ccc(O)cc2)C(=O)N[C@@H](CCO)C(=O)N[C@H](C(=O)NCC(N)=O)CSCC(=O)N[C@@H](Cc2cc(F)c(F)c(F)c2)C(=O)N(C)[C@@H](Cc2ccccc2)C(=O)N1C` [Example 10095] ({CH2CO}-[Phe(3,4,5-F3)][NMeF][NMeNle][dP]DV[NMeF]Y[dP]WY[hSer]CG-NH2; thioether N-13), for which the pIC50 is 8.00 to 9.00.

The record behind these values is patent US10538555B2, “Macrocyclic inhibitors of the PD-1/PD-L1 and CD80(B7-1)/PD-L1 protein/protein interactions” (BRISTOL-MYERS SQUIBB COMPANY, priority 2014, dated 2020).
